Literature values in US11167013B2, “Sucrose acetate isobutyrate-based compositions, methods and uses thereof” (ASSOCIATION FOR THE ADVANCEMENT OF TISSUE ENGINEERING CELL …, priority 2017, dated 2021).

Assays:
[1] = as food additive
[2] = neat SAIB

allowable daily intake [1]: 20 mg·kg/day
viscosity [2]: over 100 Pa·s
Substance: Sucrose acetate isobutyrate [SAIB]
